The series concerns CCRIS mutagenicity, Ames/micronucleus/aberration tests. Description: CCRIS mutagenicity studies.
[1] abbreviates: Test System: AMES SALMONELLA TYPHIMURIUM, Strain/Indicator: TA98, Metabolic Activation: NONE, Method: PREINCUBATION
Setting [2] is: Test System: AMES SALMONELLA TYPHIMURIUM, Strain/Indicator: TA100, Metabolic Activation: NONE, Method: PREINCUBATION
The mark [3] stands for this setting: Test System: AMES SALMONELLA TYPHIMURIUM, Strain/Indicator: TA1535, Metabolic Activation: NONE, Method: PREINCUBATION
Setting [4] is: Test System: AMES SALMONELLA TYPHIMURIUM, Strain/Indicator: TA1537, Metabolic Activation: NONE, Method: PREINCUBATION
Setting [5] is: Test System: E. COLI, Strain/Indicator: WP2 UVRA, Metabolic Activation: NONE, Method: PREINCUBATION
Setting [6] is: Test System: AMES SALMONELLA TYPHIMURIUM, Strain/Indicator: TA98, Metabolic Activation: NONE, Method: STANDARD PLATE.
Setting [7] is: Test System: AMES SALMONELLA TYPHIMURIUM, Strain/Indicator: TA98, Metabolic Activation: RAT, LIVER, S-9, AROCLOR 1254, Method: STANDARD PLATE.
Where [8] appears, read: Test System: AMES SALMONELLA TYPHIMURIUM, Strain/Indicator: TA100, Metabolic Activation: NONE, Method: STANDARD PLATE.
Setting [9] is: Test System: AMES SALMONELLA TYPHIMURIUM, Strain/Indicator: TA100, Metabolic Activation: RAT, LIVER, S-9, AROCLOR 1254, Method: STANDARD PLATE.
Where [10] appears, read: Test System: AMES SALMONELLA TYPHIMURIUM, Strain/Indicator: TA1538, Metabolic Activation: NONE, Method: STANDARD PLATE.
Setting [11] is: Test System: AMES SALMONELLA TYPHIMURIUM, Strain/Indicator: TA1538, Metabolic Activation: RAT, LIVER, S-9, AROCLOR 1254, Method: STANDARD PLATE.

Activity calls are given as the source filed them. How the calls were made is not given here.

On to `Clc1cccc(Cl)c1NC1=NCCN1`, for which the mutagenic call is, setting by setting: under setting [1], “inactive; negative”; (Test System: AMES SALMONELLA TYPHIMURIUM, Strain/Indicator: TA98, Metabolic Activation: S-9, Method: PREINCUBATION) “inactive; negative”; under setting [2], “inactive; negative”; (Test System: AMES SALMONELLA TYPHIMURIUM, Strain/Indicator: TA100, Metabolic Activation: S-9, Method: PREINCUBATION) “inactive; negative”; under setting [3], “inactive; negative”; (Test System: AMES SALMONELLA TYPHIMURIUM, Strain/Indicator: TA1535, Metabolic Activation: S-9, Method: PREINCUBATION) “inactive; negative”. Also, the mutagenic call runs as follows: under setting [4], “inactive; negative”; (Test System: AMES SALMONELLA TYPHIMURIUM, Strain/Indicator: TA1537, Metabolic Activation: S-9, Method: PREINCUBATION) “inactive; negative”; under setting [5], “inactive; negative”; (Test System: E. COLI, Strain/Indicator: WP2 UVRA, Metabolic Activation: S-9, Method: PREINCUBATION) “inactive; negative”; (Test System: UDS RAT HEPATOCYTES, Strain/Indicator: THY INCORP, Metabolic Activation: NONE, Method: IN VIVO-IN VITRO) “inactive; negative”.
Regarding `CC[n+]1c2ccccc2nc2ccccc21`, the mutagenic call under setting [6] was “inactive; negative”; the mutagenic call under setting [7] was “active; positive”; the mutagenic call under setting [8] is “inactive; negative”; the mutagenic call under setting [9] is “inactive; negative”; the mutagenic call (Test System: AMES SALMONELLA TYPHIMURIUM, Strain/Indicator: TA102, Metabolic Activation: NONE, Method: STANDARD PLATE) is “inactive; negative”; the mutagenic call (Test System: AMES SALMONELLA TYPHIMURIUM, Strain/Indicator: TA1537, Metabolic Activation: RAT, LIVER, S-9, AROCLOR 1254, Method: STANDARD PLATE) was “active; positive”. The mutagenic call under setting [10] is “inactive; negative”; the mutagenic call under setting [11] was “inactive; negative”; the mutagenic call (Test System: AMES SALMONELLA TYPHIMURIUM, Strain/Indicator: TA2638, Metabolic Activation: NONE, Method: STANDARD PLATE) is “inactive; negative”; the mutagenic call (Test System: E. COLI, Strain/Indicator: WP2 (PKM101), Metabolic Activation: NONE, Method: STANDARD PLATE) is “inactive; negative”; the mutagenic call (Test System: E. COLI, Strain/Indicator: WP2 UVRA (PKM101), Metabolic Activation: NONE, Method: STANDARD PLATE) was “active; positive”.
Consider `CC(C)CC(=O)Nc1snc2ccc(Cl)cc12`, for which the mutagenic call is, setting by setting: under setting [8], “inactive; negative”; (Test System: AMES SALMONELLA TYPHIMURIUM, Strain/Indicator: TA100, Metabolic Activation: S-9, Method: STANDARD PLATE) “inactive; negative”; (Test System: AMES SALMONELLA TYPHIMURIUM, Strain/Indicator: TA1537, Metabolic Activation: NONE, Method: STANDARD PLATE) “inactive; negative”; (Test System: AMES SALMONELLA TYPHIMURIUM, Strain/Indicator: TA1537, Metabolic Activation: S-9, Method: STANDARD PLATE) “inactive; negative”.
On to `[Cl][La]([Cl])[Cl]`, for which the mutagenic call (Test System: E. COLI, Strain/Indicator: WP2 UVRA, Metabolic Activation: NONE, Method: SPOT TEST) is “inactive; negative”.
Turning to `Nc1ncnc2c1ncn2[C@@H]1O[C@H](CO)[C@@H](O)[C@H]1O`, the mutagenic call reads like this: (Test System: AMES SALMONELLA TYPHIMURIUM, Strain/Indicator: TA97, Metabolic Activation: NONE, Method: STANDARD PLATE) “inactive; negative”; (Test System: AMES SALMONELLA TYPHIMURIUM, Strain/Indicator: TA97, Metabolic Activation: RAT, LIVER, S-9, AROCLOR 1254, Method: STANDARD PLATE) “inactive; negative”; under setting [6], “inactive; negative”; under setting [7], “inactive; negative”; under setting [8], “inactive; negative”; under setting [9], “inactive; negative”. Besides, the mutagenic call is “inactive; negative” (Test System: AMES SALMONELLA TYPHIMURIUM, Strain/Indicator: TA1535, Metabolic Activation: NONE, Method: STANDARD PLATE); “inactive; negative” (Test System: AMES SALMONELLA TYPHIMURIUM, Strain/Indicator: TA1535, Metabolic Activation: RAT, LIVER, S-9, AROCLOR 1254, Method: STANDARD PLATE); “inactive; negative” under setting [10]; “inactive; negative” under setting [11]; “inactive; negative” (Test System: CHINESE HAMSTER OVARY, Strain/Indicator: CHO-KL-BH4 (HGPRT), Metabolic Activation: NONE); “inactive; negative” (Test System: CHINESE HAMSTER OVARY, Strain/Indicator: CHO-KL-BH4 (HGPRT), Metabolic Activation: RAT, LIVER, S-9, AROCLOR 1254).
In the case of `CSc1ncnc2nc[nH]c12`, the mutagenic call under setting [8] was “active; positive”.
Take `CC(C)Nc1ccccc1`: the mutagenic call by setting is: (Test System: AMES SALMONELLA TYPHIMURIUM, Strain/Indicator: TA98, Metabolic Activation: HAMSTER, LIVER, S-9, AROCLOR 1254 (5 OR 30%), Method: PREINCUBATION) “inactive; negative”; under setting [1], “inactive; negative”; (Test System: AMES SALMONELLA TYPHIMURIUM, Strain/Indicator: TA98, Metabolic Activation: RAT, LIVER, S-9, AROCLOR 1254 (10%), Method: PREINCUBATION) “inactive; negative”; (Test System: AMES SALMONELLA TYPHIMURIUM, Strain/Indicator: TA100, Metabolic Activation: HAMSTER, LIVER, S-9, AROCLOR 1254 (10%), Method: PREINCUBATION) “inactive; negative”; under setting [2], “inactive; negative”; (Test System: AMES SALMONELLA TYPHIMURIUM, Strain/Indicator: TA100, Metabolic Activation: RAT, LIVER, S-9, AROCLOR 1254 (10%), Method: PREINCUBATION) “inactive; negative”. Besides, the mutagenic call is “inactive; negative” (Test System: AMES SALMONELLA TYPHIMURIUM, Strain/Indicator: TA1535, Metabolic Activation: HAMSTER, LIVER, S-9, AROCLOR 1254 (10%), Method: PREINCUBATION); “inactive; negative” under setting [3]; “inactive; negative” (Test System: AMES SALMONELLA TYPHIMURIUM, Strain/Indicator: TA1535, Metabolic Activation: RAT, LIVER, S-9, AROCLOR 1254 (10%), Method: PREINCUBATION); “inactive; negative” (Test System: AMES SALMONELLA TYPHIMURIUM, Strain/Indicator: TA1537, Metabolic Activation: HAMSTER, LIVER, S-9, AROCLOR 1254 (10%), Method: PREINCUBATION); “inactive; negative” under setting [4]; “inactive; negative” (Test System: AMES SALMONELLA TYPHIMURIUM, Strain/Indicator: TA1537, Metabolic Activation: RAT, LIVER, S-9, AROCLOR 1254 (10%), Method: PREINCUBATION).
For `CC(=O)c1cc(NC(=O)Nc2ccc(OCC(O)CNC(C)(C)C)c(C(C)=O)c2)ccc1OCC(O)CNC(C)(C)C` (stereo unspecified), the mutagenic call runs as follows: under setting [1], “inactive; negative”; (Test System: AMES SALMONELLA TYPHIMURIUM, Strain/Indicator: TA98, Metabolic Activation: RAT, LIVER, S-9, PHENOBARBITAL AND 5,6-BENZOFLAVONE (10 OR 50 µL/PLATE), Method: PREINCUBATION) “inactive; negative”; under setting [2], “inactive; negative”; (Test System: AMES SALMONELLA TYPHIMURIUM, Strain/Indicator: TA100, Metabolic Activation: RAT, LIVER, S-9, PHENOBARBITAL AND 5,6-BENZOFLAVONE (10 OR 50 µL/PLATE), Method: PREINCUBATION) “inactive; negative”; under setting [3], “inactive; negative”; under setting [4], “inactive; negative”. Further, the mutagenic call reads like this: (Test System: AMES SALMONELLA TYPHIMURIUM, Strain/Indicator: TA1537, Metabolic Activation: RAT, LIVER, S-9, PHENOBARBITAL AND 5,6-BENZOFLAVONE (10 OR 50 µL/PLATE), Method: PREINCUBATION) “inactive; negative”; under setting [5], “inactive; negative”; (Test System: E. COLI, Strain/Indicator: WP2 UVRA, Metabolic Activation: RAT, LIVER, S-9, PHENOBARBITAL AND 5,6-BENZOFLAVONE (10 OR 50 µL/PLATE), Method: PREINCUBATION) “inactive; negative”.

The values above are taken from PubChem BioAssay AID1259407 (Chemical Carcinogenesis Research Information System (CCRIS), 2018).
